Results: patent US7585859B2, “PDE4B inhibitors and uses therefor” (Plexxikon, Inc., priority 2004, dated 2009)
Read-outs that look alike come from different tables or passages of the source.

Legend:
[1] = biological target: T1, PDE4B: The catalytic domain of human PDE4B from S152-S528 (Homo sapiens, UniProt Q07343); assay: PDE4 IC50 determination by Scintillation Proximity Assay, PDE4B; assay type: biochemical
T1 construct: His6 (N); thrombin cleavage site (N); made in house; host or cells: E. coli
Summary of the method: (§1)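 Scintillation counts reflected [^3H]AMP captured on yttrium silicate SPA beads after enzyme hydrolysed [^3H]cAMP for 30 min at 30°. PDE4B was used at 80 ng/ml and PDE4D at 4 ng/ml. IC50 values came from non-linear regression.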

[2] = biological target: T2, PDE4D (Homo sapiens, UniProt Q08499); assay: PDE4 IC50 determination by Scintillation Proximity Assay, PDE4D; assay type: biochemical
T2 construct: PDE4D: The catalytic domain of human PDE4B from S3 16-V692; His6 (N); thrombin cleavage site (N); made in house; host or cells: E. coli
Summary of the method: as §1

[3] = first part of Table 2B (2-1 to 2-22), read-out: IC 50 vs. indicated assay PDE4B
[4] = first part of Table 2B (2-1 to 2-22), read-out: IC 50 vs. indicated assay PDE4D
[5] = second part of Table 2B (2-23 to 2-103), column 3, column is PDE4B in first part, read-out: IC 50 vs. indicated assay h TNFα
[6] = second part of Table 2B (2-23 to 2-103), column 5, column is PDE4D in first part, read-out: IC 50 vs. indicated assay h TNFα

T2 sequence (Q08499 380-756): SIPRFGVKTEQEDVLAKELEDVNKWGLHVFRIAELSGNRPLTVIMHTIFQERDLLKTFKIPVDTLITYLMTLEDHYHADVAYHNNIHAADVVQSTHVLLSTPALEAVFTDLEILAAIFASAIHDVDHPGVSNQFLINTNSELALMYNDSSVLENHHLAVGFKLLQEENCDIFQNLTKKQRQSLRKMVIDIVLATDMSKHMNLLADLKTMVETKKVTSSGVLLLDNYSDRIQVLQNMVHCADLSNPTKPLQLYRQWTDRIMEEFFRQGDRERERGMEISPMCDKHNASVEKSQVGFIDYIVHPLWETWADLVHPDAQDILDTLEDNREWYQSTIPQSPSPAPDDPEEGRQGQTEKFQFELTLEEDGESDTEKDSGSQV
T1 sequence (Q07343 with tags, fused parts or gaps): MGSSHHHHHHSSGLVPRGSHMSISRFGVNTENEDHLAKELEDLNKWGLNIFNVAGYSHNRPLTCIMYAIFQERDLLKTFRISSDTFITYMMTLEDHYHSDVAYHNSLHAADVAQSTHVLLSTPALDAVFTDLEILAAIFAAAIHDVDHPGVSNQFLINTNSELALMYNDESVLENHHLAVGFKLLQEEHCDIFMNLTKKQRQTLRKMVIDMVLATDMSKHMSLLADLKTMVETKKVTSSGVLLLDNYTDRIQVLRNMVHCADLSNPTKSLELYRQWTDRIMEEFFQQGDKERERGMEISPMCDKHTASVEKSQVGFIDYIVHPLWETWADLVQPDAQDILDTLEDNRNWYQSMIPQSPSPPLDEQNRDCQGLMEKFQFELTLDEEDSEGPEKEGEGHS

SMILES | IC50 [1, 3] [µM] | IC50 [2, 4] [µM] | IC50 [1, 5] [µM] | IC50 [2, 6] [µM] | also measured
N#Cc1c(NC2CCCC2)sc(C(=O)c2csc(-c3ccccc3)n2)c1N [Compound 1-235, 4-Amino-2-cyclopentylamino-5-(2-phenyl-thiazole-4-carbonyl)-thiophene-3-carbonitrile] |  |  |  |  | IC50 ([1]; Table 1B, Formula I compounds, read-out: IC50 PDE4B): < 10 µM; IC50 ([2]; Table 1B, Formula I compounds, read-out: IC50 PDE4D): < 10 µM
CCOC(=O)c1cc(C(=O)c2sc(Nc3ccc(OC)cc3)nc2N)on1 [Compound 2-2, 5-[4-Amino-2-(4-methoxy-phenylamino)-thiazole-5-carbonyl]-isoxazole-3-carboxylic acid ethyl ester] | < 10 | < 10 |  |  | 
CCOC(=O)c1cc(C(=O)c2sc(Nc3ccc(Oc4ccccc4)cc3)nc2N)on1 [Compound 2-3, 5-[4-Amino-2-(4-phenoxy-phenylamino)-thiazole-5-carbonyl]-isoxazole-3-carboxylic acid ethyl ester] | > 10 | > 10 |  |  | 
CCOC(=O)c1cc(C(=O)c2sc(NC3CCCC3)nc2N)on1 [Compound 2-4, 5-(4-Amino-2-cyclopentylamino-thiazole-5-carbonyl)-isoxazole-3-carboxylic acid ethyl ester] | < 10 | < 10 |  |  | 
CCOC(=O)c1cc(C(=O)c2sc(NC3CC3)nc2N)on1 [Compound 2-5, 5-(4-Amino-2-cyclopropylamino-thiazole-5-carbonyl)-isoxazole-3-carboxylic acid ethyl ester] | < 10 | < 10 |  |  | 
COc1ccc(Nc2nc(N)c(C(=O)c3cc(-c4ccccc4)no3)s2)cc1 [Compound 2-7, [4-Amino-2-(4-methoxy-phenylamino)-thiazol-5-yl]-(3-phenyl-isoxazol-5-yl)-methanone] | < 10 | < 10 |  |  | 
Nc1nc(NC2CC2)sc1C(=O)c1cc(-c2ccccc2)no1 [Compound 2-10, (4-Amino-2-cyclopropylamino-thiazol-5-yl)-(3-phenyl-isoxazol-5-yl)-methanone] | < 10 | < 10 |  |  | 
CC(C)Nc1nc(N)c(C(=O)c2cc(-c3ccccc3)no2)s1 [Compound 2-11, (4-Amino-2-isopropylamino-thiazol-5-yl)-(3-phenyl-isoxazol-5-yl)-methanone] | < 10 | < 10 |  |  | 
Nc1nc(NC2CCCC2)sc1C(=O)c1cc(-c2ccc(Cl)cc2)no1 [Compound 2-12, (4-Amino-2-cyclopentylamino-thiazol-5-yl)-[3-(4-chloro-phenyl)-isoxazol-5-yl]-methanone] | < 10 | < 10 |  |  | 
CC(C)Nc1nc(N)c(C(=O)c2cc(-c3ccc(Cl)cc3)no2)s1 [Compound 2-13, (4-Amino-2-isopropylamino-thiazol-5-yl)-[3-(4-chloro-phenyl)-isoxazol-5-yl]-methanone] | < 10 | < 10 |  |  | 
CC(C)Nc1nc(N)c(C(=O)c2cc(-c3ccc(Cl)c(Cl)c3)no2)s1 [Compound 2-14, (4-Amino-2-isopropylamino-thiazol-5-yl)-[3-(3,4-dichloro-phenyl)-isoxazol-5-yl]-methanone] | < 10 | < 10 |  |  | 
CC(C)CNc1nc(N)c(C(=O)c2cc(-c3ccc(Cl)c(Cl)c3)no2)s1 [Compound 2-15, (4-Amino-2-isobutylamino-thiazol-5-yl)-[3-(3,4-dichloro-phenyl)-isoxazol-5-yl]-methanone] | < 10 | < 10 |  |  | 
CC(C)CNc1nc(N)c(C(=O)c2cc(-c3ccc(Cl)cc3)no2)s1 [Compound 2-16, (4-Amino-2-isobutylamino-thiazol-5-yl)-[3-(4-chloro-phenyl)-isoxazol-5-yl]-methanone] | < 10 | < 10 |  |  | 
Nc1nc(NC2CCCC2)sc1C(=O)c1ccc(-c2ccccn2)s1 [Compound 2-17, (4-Amino-2-cyclopentylamino-thiazol-5-yl)-(5-pyridin-2-yl-thiophen-2-yl)-methanone] | < 10 | < 10 |  |  | 
Nc1nc(NC2CCCC2)sc1C(=O)c1ccc(-c2ccccc2)s1 [Compound 2-18, (4-Amino-2-cyclopentylamino-thiazol-5-yl)-(5-phenyl-thiophen-2-yl)-methanone] | < 10 | < 10 |  |  | 
Cc1sc(-c2ccccc2)cc1C(=O)c1sc(NC2CCCC2)nc1N [Compound 2-20, (4-Amino-2-cyclopentylamino-thiazol-5-yl)-(2-methyl-5-phenyl-thiophen-3-yl)-methanone] | < 10 | < 10 |  |  | 
Cc1c(C(=O)c2sc(NC3CCCC3)nc2N)cnn1-c1ccccc1 [Compound 2-21, (4-Amino-2-cyclopentylamino-thiazol-5-yl)-(5-methyl-1-phenyl-1H-pyrazol-4-yl)-methanone] | < 10 | < 10 |  |  | 
Cc1nc(-c2cnccn2)sc1C(=O)c1sc(NC2CCCC2)nc1N [Compound 2-22, (4-Amino-2-cyclopentylamino-thiazol-5-yl)-(4-methyl-2-pyrazin-2-yl-thiazol-5-yl)-methanone] | < 10 | < 10 |  |  | 

SMILES | IC50 [1, 3] [µM] | IC50 [2, 4] [µM] | IC50 [1, 5] [µM] | IC50 [2, 6] [µM] | also measured
Nc1nc(Nc2ccc(Cl)cc2)sc1C(=O)c1cccc([N+](=O)[O-])c1 [Compound 2-24, [4-Amino-2-(4-chloro-phenylamino)-thiazol-5-yl]-(3-nitro-phenyl)-methanone] |  |  | < 10 | < 10 | 
Nc1nc(Nc2ccccc2)sc1C(=O)c1ccccc1 [Compound 2-25, (4-Amino-2-phenylamino-thiazol-5-yl)-phenyl-methanone] |  |  | < 10 | < 10 | 
Nc1nc(Nc2ccc(Cl)cc2)sc1C(=O)c1ccccc1 [Compound 2-26, [4-Amino-2-(4-chloro-phenylamino)-thiazol-5-yl]-phenyl-methanone] |  |  | < 10 | < 10 | 
Nc1nc(Nc2ccc(Cl)cc2)sc1C(=O)c1ccc(Br)cc1 [Compound 2-27, [4-Amino-2-(4-chloro-phenylamino)-thiazol-5-yl]-(4-bromo-phenyl)-methanone] |  |  | < 10 | < 10 | 
Nc1nc(Nc2ccc(F)cc2)sc1C(=O)c1ccc(F)cc1 [Compound 2-28, [4-Amino-2-(4-fluoro-phenylamino)-thiazol-5-yl]-(4-fluoro-phenyl)-methanone] |  |  | < 10 | < 10 | 
Nc1nc(Nc2ccccc2Cl)sc1C(=O)c1ccccc1 [Compound 2-29, [4-Amino-2-(2-chloro-phenylamino)-thiazol-5-yl]-phenyl-methanone] |  |  | < 10 | < 10 | 
COc1ccc(C(=O)c2sc(Nc3ccccc3)nc2N)cc1OC [Compound 2-31, (4-Amino-2-phenylamino-thiazol-5-yl)-(3,4-dimethoxy-phenyl)-methanone] |  |  | < 10 | < 10 | 
Nc1nc(Nc2cc(Cl)ccc2Cl)sc1C(=O)c1ccccc1 [Compound 2-32, [4-Amino-2-(2,5-dichloro-phenylamino)-thiazol-5-yl]-phenyl-methanone] |  |  | < 10 | < 10 | 
Nc1nc(Nc2cccc(C(=O)O)c2)sc1C(=O)c1ccccc1 [Compound 2-36, 3-(4-Amino-5-benzoyl-thiazol-2-ylamino)-benzoic acid] |  |  | < 10 | < 10 | 
COc1ccc(C(=O)c2sc(Nc3ccccc3)nc2N)cc1 [Compound 2-37, (4-Amino-2-phenylamino-thiazol-5-yl)-(4-methoxy-phenyl)-methanone] |  |  | < 10 | < 10 | 
COc1ccc(Nc2nc(N)c(C(=O)c3ccccc3)s2)cc1 [Compound 2-39, [4-Amino-2-(4-methoxy-phenylamino)-thiazol-5-yl]-phenyl-methanone] |  |  | < 10 | < 10 | 
Nc1nc(Nc2c(Cl)cccc2Cl)sc1C(=O)c1ccc(OC(F)F)cc1 [Compound 2-42, [4-Amino-2-(2,6-dichloro-phenylamino)-thiazol-5-yl]-(4-difluoromethoxy-phenyl)-methanone] |  |  | < 10 | < 10 | 
Nc1nc(Nc2c(Cl)cc(Cl)cc2Cl)sc1C(=O)c1ccccc1 [Compound 2-43, [4-Amino-2-(2,4,6-trichloro-phenylamino)-thiazol-5-yl]-phenyl-methanone] |  |  | < 10 | > 10 | 
N#Cc1cccc(Nc2nc(N)c(C(=O)c3ccc(Oc4ccccc4)cc3)s2)c1 [Compound 2-46, 3-[4-Amino-5-(4-phenoxy-benzoyl)-thiazol-2-ylamino]-benzonitrile] |  |  | < 10 | < 10 | 
COc1ccc(C(=O)c2sc(Nc3cccc(C#N)c3)nc2N)cc1 [Compound 2-48, 3-[4-Amino-5-(4-methoxy-benzoyl)-thiazol-2-ylamino]-benzonitrile] |  |  | < 10 | < 10 | 
COc1ccc(C(=O)c2sc(Nc3ccc(Oc4ccccc4)cc3)nc2N)cc1 [Compound 2-49, [4-Amino-2-(4-phenoxy-phenylamino)-thiazol-5-yl]-(4-methoxy-phenyl)-methanone] |  |  | < 10 | < 10 | 
Nc1nc(Nc2ccccc2F)sc1C(=O)c1cccc(Cl)c1 [Compound 2-50, [4-Amino-2-(2-fluoro-phenylamino)-thiazol-5-yl]-(3-chloro-phenyl)-methanone] |  |  | < 10 | < 10 | 
COc1ccc(Nc2nc(N)c(C(=O)c3cccc(Cl)c3)s2)cc1 [Compound 2-51, [4-Amino-2-(4-methoxy-phenylamino)-thiazol-5-yl]-(3-chloro-phenyl)-methanone] |  |  | < 10 | < 10 | 
